The values below come from a melting point compilation (Tetko et al.; mined from patent text by program, amines drawn as free bases though some values may be those of a salt).

For the compound `COC(=O)CCc1oc(-c2ccc3c(c2)OCO3)nc1-c1ccc(Cl)cc1`, the melting point (in general, the temperature of the solid-liquid transition) fell in the range of 123 to 124 °C. As to `Cc1ccc(-c2ccccc2C(=O)NCc2ccc([N+](=O)[O-])cc2)cc1`, the melting point lay in the range of 153 to 154 °C. The compound `COc1cccc(NC(=O)c2ccccc2[N+](=O)[O-])c1` had a melting point of 156 to 158 °C. Take `C[C@H](O)[C@H](CO)N(Cc1ccc(C#N)cc1)S(=O)(=O)c1ccc(Cl)cc1`: the melting point lay in the range of 124 to 126 °C. The compound `CC1=C(C(=O)OCC(C)C)C(c2cccc([N+](=O)[O-])c2)c2c(nc(N3CCOCC3)nc2N2CCOCC2)N1` (stereo not given) displayed a melting point of 214 °C. Turning to `O=C1CCCc2cc(OCc3ccccc3)ccc21`, the melting point lay within 95 to 97 °C. For `O=[N+]([O-])c1ccc2nc3c(nc2c1)OCC1CCCCN31` (stereo not given), the melting point lay in the range of 151 to 154 °C.

Turning to `O=C1NCCNC1c1cn(Cc2ccc(Cl)cc2)c2ccccc12` (stereo not given), the melting point amounted to 195 °C. `COC(=O)Cc1ccc(N[C@@H](CCC(N)=O)C(=O)O)cc1` yielded a melting point of 183 to 184 °C. Take `C=CCOC(=O)C1N2C(=O)C(NC(=O)CC(=O)OCC)C2S(=O)(=O)C1(C)C` (stereo not given): the melting point fell in the range of 114 to 115 °C. With `CCOC(=O)c1cc(-c2ccc(Cl)cc2)n(O)c1C(=O)OCC` the figure was 82 to 84 °C.

For the compound `CC(C)(C)C(=O)Nc1cccc(P(c2ccccc2)c2cccc3ccccc23)n1` (stereo not given), the melting point came out at 55 °C. Compound `O=C(Nc1ccc(-n2nc(C(F)(F)F)cc2OC(F)F)cc1)c1cccc(F)c1F` had a melting point of 154 to 155 °C. `Cc1nn(-c2ccccn2)c2[nH]c3ccc(N)cc3c(=O)c12` gave a melting point of 260 to 262 °C.

In the case of `O=C(c1ccccc1)c1cccc(-c2cccc(Cn3cncn3)c2)c1`, the melting point amounted to 121 °C. `CCOCCc1c(N=[N+]=[N-])nc(NC(=O)NCC(=O)O)nc1-c1ccccc1` displayed a melting point of 160 °C.

The compound `CC(C)(C)OC(=O)NCCNC(=O)c1ccc(Cl)cn1` came in with a melting point of 106 to 108 °C. Turning to `CCOC(=O)Cc1ccc(-c2ccc(-c3ccccc3)cc2)o1`, the melting point is 77 to 78 °C.

In turn, `CC(C)c1nc(CN=[N+]=[N-])n(C)c1Sc1cc(Cl)cc(Cl)c1` came in with a melting point of 84 to 85 °C. For the compound `CCOC(=O)c1cc(NC(C)=O)ccc1O`, the melting point lay within 135 to 136 °C. Regarding `OC1CSC(Oc2cncc(-c3ncccc3Cl)c2)C(O)C1O` (stereo not given), the melting point turned out to be 193 °C. The result for `CCOC(=O)C(NC(=O)CNC(=O)CC)C(=O)OCC` reads 120 to 122 °C; that for `O=C1c2ccccc2C(=O)N1CC(=O)N(CC(=O)n1ccnc1)c1ccccc1`, 206 °C; that for `CCOC(=O)Cc1ccccc1N[C@@H](CCC(N)=O)C(=O)O`, 171 to 172 °C.

On to `N#CNc1cc(F)ccc1-c1ccccc1`, for which the melting point was 68 to 70 °C. `COc1ccc(-c2sc3ccccc3c2C(=O)c2ccc(OCCN3CCCCC3)cc2)cc1` came in with a melting point of 41 to 44 °C. On to `O=S(=O)(Cl)c1cccc2c(I)cccc12`, for which the melting point is 113 to 114 °C. `Cc1nn(-c2ccc(F)cc2)cc1C(=O)Nc1ccc(OCC(C)(C)C)c(C#N)c1` gave a melting point of 181 to 182 °C. `ClCCCCSc1ccncc1` showed a melting point of 80 to 85 °C. For `CCCCc1oc2ccccc2c1-c1ncc(-c2ccc3cc(OCc4ccc(C(=O)O)cc4C(=O)O)ccc3c2)o1`, the melting point was in the range of 285 to 287 °C. The compound `Cc1cccc(C)c1CNc1cc(C(=O)NCCO)cc2c1nc(C)n2C` yielded a melting point of 259 to 260 °C. In the case of `CNC(=O)C1CN(CCCC(c2ccc(F)cc2)c2ccc(F)cc2)CCN1CC(=O)Nc1c(C)cc(N)cc1C` (stereo not given), the melting point was found to be 112 °C.

`CC1C(=O)N(c2ccc3c(c2)OCO3)C(=S)N1c1ccc(Oc2ccccc2)cc1` (stereo not given) had a melting point of 185 °C. On to `CS(=O)(=O)c1ccccc1S`, for which the melting point stood at 57 °C. As to `Cc1ccc2c(c1)c1cc(-c3ccc(OCC#N)cc3)c(=O)n(C)c1n2C`, the melting point is 195 to 196 °C.
